According to ChEMBL document CHEMBL2169787, “The biology and chemistry of antifungal agents: a review” (2012):
Converted amounts (≈) assume the structure as drawn.

Experiments:
Format in all cases: functional
Candida = assay: Antifungal activity against Candida spp
Candida parapsilosis [1] = assay: Antifungal activity against Candida parapsilosis ATCC 22019; conditions: Lodderomyces parapsilosis
Candida albicans [2] = assay: Antifungal activity against Candida albicans; conditions: Candida albicans
Sporothrix schenckii = assay: Antifungal activity against Sporothrix schenckii
Aspergillus fumigatus [3] = assay: Antifungal activity against Aspergillus fumigatus
Cryptococcus neoformans [4] = assay: Antifungal activity against Cryptococcus neoformans
Microsporum = assay: Antifungal activity against Microsporum […]
Trichophyton rubrum = assay: Antifungal activity against Trichophyton rubrum
Candida parapsilosis [5] = assay: Antifungal activity against Candida parapsilosis; conditions: Lodderomyces parapsilosis
Candida tropicalis = assay: Antifungal activity against Candida tropicalis
[6] = Antifungal activity against Fonsecaea compacta
Microsporum canis = assay: Antifungal activity against Microsporum canis
Aspergillus flavus = assay: Antifungal activity against Aspergillus flavus; conditions: for MIC: Aspergillus flavus
Fusarium verticillioides = assay: Antifungal activity against Fusarium moniliforme
Lasiodiplodia theobromae = assay: Antifungal activity against Botryodiplodia theobromae
Cryptococcus neoformans [7] = assay: Antifungal activity against Cryptococcus neoformans after 72 hrs by NCCLS broth microdilution method
Aspergillus fumigatus [8] = assay: Antifungal activity against Aspergillus fumigatus assessed as growth inhibition
Aspergillus niger [9] = assay: Antifungal activity against Aspergillus niger assessed as growth inhibition
Aspergillus niger [10] = assay: Antifungal activity against Aspergillus niger
Trichophyton tonsurans = assay: Antifungal activity against Trichophyton tonsurans
Staphylococcus aureus = assay: Antibacterial activity against Staphylococcus aureus
[11] = test system: Mycobacterium tuberculosis; assay: Antibacterial activity against Mycobacterium tuberculosis
[12] = test system: Trichophyton mentagrophytes; assay: Antifungal activity against Trichophyton mentagrophytes
Aspergillus fumigatus [13] = assay: Antifungal activity against Aspergillus fumigatus relative to fluconazole
Candida albicans [14] = assay: Antifungal activity against Candida albicans relative to fluconazole
Macrophomina phaseolina = assay: Antifungal activity against Macrophomina phaseolina
Fusarium oxysporum = assay: Antifungal activity against Fusarium oxysporum; conditions: Fusarium oxysporum

Compound: CCN(CC)C(=O)C1(C)C2(C(=O)N(c3ccccc3)N=C2C)C1(c1ccccc1)c1ccccc1 (configuration not stated)
- MIC (Candida): 25 µg/mL (≈ 53.7 µM)

Compound: C[C@H](CCCN1C=NN(CC(O)(Cn2cncn2)c2ccc(F)cc2F)C1)[C@H]1CC[C@H]2[C@@H]3CC[C@@H]4CCCC[C@]4(C)[C@H]3CC[C@]12C (some centres not stated)
- MIC (Candida parapsilosis [1]): 2.18 µg/mL (≈ 3.42 µM)
- MIC (Candida albicans [2]): 2.18 µg/mL (≈ 3.42 µM)
- MIC (Sporothrix schenckii): 2.18 µg/mL (≈ 3.42 µM)

Compound: CC1=NN(c2ccccc2)C(=O)C12C(C(=O)OC(C)C)C2(c1ccccc1)c1ccccc1 (configuration not stated)
- MIC (Candida): 25 µg/mL (≈ 57 µM)

Compound: CCC(C)n1ncn(-c2ccc(N3CCN(c4ccc(OCC5COC(Cn6cncn6)(c6ccc(Cl)cc6Cl)O5)cc4)CC3)cc2)c1=O (configuration not stated) [ITRACONAZOLE]
- MIC (Aspergillus fumigatus [3]): 0.0625 µg/mL (≈ 0.0886 µM)
- MIC (Cryptococcus neoformans [4]): 0.0625 µg/mL (≈ 0.0886 µM)
- MIC (Candida): 2 µg/mL (≈ 2.83 µM)
- MIC (Microsporum): 0.0625 µg/mL (≈ 0.0886 µM)
- MIC (Trichophyton rubrum): 0.0625 µg/mL (≈ 0.0886 µM)
- MIC (Candida parapsilosis [5]): 0.0625 µg/mL (≈ 0.0886 µM)
- MIC (Candida tropicalis): 0.0625 µg/mL (≈ 0.0886 µM)

Compound: CN(CC(O)(Cn1cncn1)c1ccc(F)cc1F)C1CC1 (configuration not stated)
- MIC (Aspergillus fumigatus [3]): 0.125 µg/mL (≈ 0.405 µM)
- MIC [6]: 0.125 µg/mL (≈ 0.405 µM)
- MIC (Cryptococcus neoformans [4]): 0.125 µg/mL (≈ 0.405 µM)
- MIC (Trichophyton rubrum): 0.125 µg/mL (≈ 0.405 µM)
- MIC (Candida albicans [2]): 0.125 µg/mL (≈ 0.405 µM)
- MIC (Microsporum canis): 0.125 µg/mL (≈ 0.405 µM)
- MIC (Candida parapsilosis [5]): 0.125 µg/mL (≈ 0.405 µM)
- MIC (Candida tropicalis): 0.125 µg/mL (≈ 0.405 µM)

Compound: Fc1ccc(N2OC(c3ccccc3)CC2c2ccc(-c3ccccc3)cc2)cc1 (configuration not stated)
- MIC (Aspergillus flavus): 2.5 µg/mL (≈ 6.32 µM)
- MIC (Fusarium verticillioides): 2.5 µg/mL (≈ 6.32 µM)
- MIC (Lasiodiplodia theobromae): 2.5 µg/mL (≈ 6.32 µM)

Compound: COc1ccc(N2OC(c3ccccc3)CC2c2ccc(-c3ccccc3)cc2)cc1 (configuration not stated)
- MIC (Aspergillus flavus): 2.5 µg/mL (≈ 6.13 µM)
- MIC (Fusarium verticillioides): 2.5 µg/mL (≈ 6.13 µM)
- MIC (Lasiodiplodia theobromae): 2.5 µg/mL (≈ 6.13 µM)

Compound: COc1ccc(N2OC(CO)CC2c2ccc(-c3ccccc3)cc2)cc1 (configuration not stated)
- MIC (Aspergillus flavus): 2.5 µg/mL (≈ 6.92 µM)
- MIC (Fusarium verticillioides): 2.5 µg/mL (≈ 6.92 µM)
- MIC (Lasiodiplodia theobromae): 2.5 µg/mL (≈ 6.92 µM)

Compound: CCC(c1cccc2ccccc12)N(C)C/C=C/C#CC(C)(C)C (configuration not stated)
- MIC50 (Cryptococcus neoformans [7]): 0.5 µg/mL (≈ 1.56 µM)

Compound: OC(CN1CCN(c2ccc(OCc3ccncc3)cc2)CC1)(Cn1cncn1)c1ccccc1 (configuration not stated)
- MIC (Aspergillus fumigatus [3]): 0.0625 µg/mL (≈ 0.133 µM)
- MIC (Cryptococcus neoformans [4]): 0.0625 µg/mL (≈ 0.133 µM)
- MIC (Microsporum): 0.0625 µg/mL (≈ 0.133 µM)
- MIC (Trichophyton rubrum): 0.0625 µg/mL (≈ 0.133 µM)
- MIC (Candida parapsilosis [5]): 0.0625 µg/mL (≈ 0.133 µM)
- MIC (Candida tropicalis): 0.0625 µg/mL (≈ 0.133 µM)

Compound: COC(=O)Nc1nc2ccccc2[nH]1 [CARBENDAZIM]
- growth inhibition (GI) (Aspergillus fumigatus [8]): 92%
- growth inhibition (GI) (Aspergillus niger [9]): 90%

Compound: O=C(Nc1ccccc1-c1nnc(-c2ccc(O)cc2)o1)c1ccccc1
- inhibition zone (IZ) (Aspergillus flavus): 11 mm
- inhibition zone (IZ) (Aspergillus niger [10]): 15 mm

Compound: COC(=O)C1(C)C2(C(=O)N(c3ccccc3)N=C2C)C1(c1ccccc1)c1ccccc1 (configuration not stated)
- MIC (Candida): 25 µg/mL (≈ 58.9 µM)

Compound: Cc1ncc([N+](=O)[O-])n1CC(O)CCl (configuration not stated) [ORNIDAZOLE]
- MIC (Trichophyton tonsurans): 0.8 µg/mL (≈ 3.64 µM)

Compound: CC1=NN(c2ccccc2)C(=O)C12C(C)(C(=O)OC(C)(C)C)C2(c1ccccc1)c1ccccc1 (configuration not stated)
- MIC (Candida): 25 µg/mL (≈ 53.6 µM)

Compound: NC(=O)c1ccc(COc2ccc(N3CCN(CC(O)(Cn4cncn4)c4ccccc4)CC3)cc2)cc1 (configuration not stated)
- MIC (Aspergillus fumigatus [3]): 0.0625 µg/mL (≈ 0.122 µM)
- MIC (Cryptococcus neoformans [4]): 0.0625 µg/mL (≈ 0.122 µM)
- MIC (Microsporum): 0.0625 µg/mL (≈ 0.122 µM)
- MIC (Trichophyton rubrum): 0.0625 µg/mL (≈ 0.122 µM)
- MIC (Candida parapsilosis [5]): 0.0625 µg/mL (≈ 0.122 µM)
- MIC (Candida tropicalis): 0.0625 µg/mL (≈ 0.122 µM)

Compound: NC(=S)N1N=C(c2ccc(Cl)cc2)CC1c1cccnc1 (configuration not stated)
- MIC (Staphylococcus aureus): 128 µg/mL (≈ 404 µM)
- MIC [11]: 6.25 µg/mL (≈ 19.7 µM)

Compound: O=C1C(CO)=C(Sc2ccccc2)C(=O)c2ccccc21
- MIC (Aspergillus fumigatus [3]): 0.78 µg/mL (≈ 2.63 µM)
- MIC (Cryptococcus neoformans [4]): 0.78 µg/mL (≈ 2.63 µM)
- MIC [12]: 0.78 µg/mL (≈ 2.63 µM)
- MIC (Candida albicans [2]): 0.78 µg/mL (≈ 2.63 µM)
- MIC (Microsporum canis): 0.78 µg/mL (≈ 2.63 µM)
- MIC (Sporothrix schenckii): 0.78 µg/mL (≈ 2.63 µM)

Compound: CCCCCCCCCC1C=C(CCC2C(OC)OC3COC(c4ccccc4)OC3C2CCC2CN(CCCCCCCCC)N=N2)N=N1 (configuration not stated)
- fold change (FC) (Aspergillus fumigatus [13]): 14
- fold change (FC) (Candida albicans [14]): 14

Compound: O=C(Nc1ccccc1-c1nnc(-c2ccccc2)o1)c1ccccc1
- inhibition zone (IZ) (Aspergillus flavus): 11 mm
- inhibition zone (IZ) (Aspergillus niger [10]): 15 mm

Compound: N#Cc1ccc(N(CC(O)(Cn2cncn2)c2ccc(F)cc2F)C2CC2)cc1 (configuration not stated)
- MIC (Aspergillus fumigatus [3]): 0.125 µg/mL (≈ 0.316 µM)
- MIC [6]: 0.125 µg/mL (≈ 0.316 µM)
- MIC (Cryptococcus neoformans [4]): 0.125 µg/mL (≈ 0.316 µM)
- MIC (Trichophyton rubrum): 0.125 µg/mL (≈ 0.316 µM)
- MIC (Candida albicans [2]): 0.125 µg/mL (≈ 0.316 µM)
- MIC (Microsporum canis): 0.125 µg/mL (≈ 0.316 µM)
- MIC (Candida parapsilosis [5]): 0.125 µg/mL (≈ 0.316 µM)
- MIC (Candida tropicalis): 0.125 µg/mL (≈ 0.316 µM)

Compound: C[C@H](CCCN1C=NN(CC(O)(Cn2cncn2)c2ccc(F)cc2F)C1)[C@H]1CC[C@H]2[C@@H]3[C@H](O)C[C@@H]4CCCC[C@]4(C)[C@H]3CC[C@]12C (some centres not stated)
- MIC (Candida parapsilosis [1]): 2.18 µg/mL (≈ 3.34 µM)
- MIC (Candida albicans [2]): 2.18 µg/mL (≈ 3.34 µM)
- MIC (Sporothrix schenckii): 2.18 µg/mL (≈ 3.34 µM)

Compound: CC1=NN(c2ccccc2)C(=O)C12C(C#N)C2(c1ccccc1)c1ccccc1 (configuration not stated)
- MIC (Candida): 25 µg/mL (≈ 66.2 µM)

Compound: CCOC(=O)C1(C)C2(C(=O)N(c3ccccc3)N=C2C)C1(c1ccccc1)c1ccccc1 (configuration not stated)
- MIC (Candida): 25 µg/mL (≈ 57 µM)

Compound: N#Cc1c(Cl)c(Cl)c(Cl)c(C#N)c1Cl [CHLOROTHALONIL]
- MIC (Macrophomina phaseolina): 52 µg/mL (≈ 196 µM)
- MIC (Aspergillus niger [10]; Aspergillus niger): 52 µg/mL (≈ 196 µM)
- MIC (Fusarium oxysporum): 52 µg/mL (≈ 196 µM)
